# According to patent US20170209447A1, “Use of PNP Inhibitor to Treat Relapse of Malignancy after Hematopoietic Stem Cell Transplant” (Nitor Therapeutics, priority 2014, published 2017):
# Legend:
# B16 tumors = experiment: PNPi as anticancer agent in mouse melanoma model; type: in vivo, C57BL/6 mice; details: cyclophosphamide 100 mg/kg IP single dose; FIG. 6
# Method: Evaluation of PNPi as Anticancer Agent in Mouse Melanoma Model.
# Treatment with the NTR001 was initiated on day 6 after injection of tumor cells. Tumor volume and survival were recorded every 3-4 days.
# human TLR2 = molecular target: T1, human TLR2 (Homo sapiens, UniProt O60603); experiment: TLR ligand screening: NF-κB SEAP reporter in HEK293 cells expressing TLR2; type: cell-based; details: FIG. 2
# T1 construct: expressed in transfected cells; host or cells: HEK293
# Method: (§1) Toll-Like Receptor (TLR) Ligand Screening: In-vitro Activity of the PNPi, Guanosine and Inosine on Seven Different Human TLRs (TLR2, 3, 4, 5, 7, 8 and 9) as a Potential Agonist.
# (§2) Method: TLR stimulation is tested by assessing NF-KB activation in HEK293 cells expressing a given TLR. The Secreted Embryonic Alkaline Phosphatase (SEAP) reporter is under the control of a promoter inducible by the transcription factor NF-κB.
# (§3) This reporter gene allows the monitoring of signaling through the TLR, based on the activation of NF-κB. The compounds are evaluated at one concentration and compared to control ligands. This step is performed in triplicate.
# human TLR4 = molecular target: T2, human TLR4 (Homo sapiens, UniProt O00206); experiment: TLR ligand screening: NF-κB SEAP reporter in HEK293 cells expressing TLR4; type: cell-based; details: FIG. 2
# T2 construct: expressed in transfected cells; host or cells: HEK293
# Method: as §1, §2, §3
# tetanus toxoid vaccine = experiment: PNPi as adjuvant in tetanus toxoid vaccine efficacy study (tetanus toxoid mouse model); type: in vivo, mice; details: compared to vehicle treated group
# Method: This Example Evaluates PNPi as an Adjuvant in Tetanus Toxoid Vaccine Efficacy Study.
# Method: Tetanus toxoid (TT) was used to vaccinate mice thrice, two weeks apart. Mice were treated by oral administration of compounds NTR001 and NTR002 and serum was collected at various time points for antibody titer and interferon-g analysis. Mice in Groups 2-6 (Table 2) are vaccinated subcutaneously with 0.1 ml tetanus toxoid vaccine on DAYS 0, 14 and 28. Mice in Group 1 (Table 1) received no vaccine. Antibody titers for DAYS 38 are determined by ELISA using tetanus toxoid coated microtiter plates and anti-mouse conjugate. Sera from DAY 30 are assayed by ELISA for interferon-g.
# [1] = system: L. monocytogenes (ATCC Strain35152, hemolytic substrain); details: 30 mg/kg PO or IP, or 2 mg/kg drinking water; 1×10^6 CFU i.v.; FIGS. 7 and 9
# [2] = Guanosine 100 uM in combination with NTR001 (10 uM) and/or Inosine (100 uM)
# [3] = one concentration: Guanosine 100 uM, NTR001 10 uM, Inosine 100 uM, HEK293, triplicate
# T1 sequence (O60603 21-784): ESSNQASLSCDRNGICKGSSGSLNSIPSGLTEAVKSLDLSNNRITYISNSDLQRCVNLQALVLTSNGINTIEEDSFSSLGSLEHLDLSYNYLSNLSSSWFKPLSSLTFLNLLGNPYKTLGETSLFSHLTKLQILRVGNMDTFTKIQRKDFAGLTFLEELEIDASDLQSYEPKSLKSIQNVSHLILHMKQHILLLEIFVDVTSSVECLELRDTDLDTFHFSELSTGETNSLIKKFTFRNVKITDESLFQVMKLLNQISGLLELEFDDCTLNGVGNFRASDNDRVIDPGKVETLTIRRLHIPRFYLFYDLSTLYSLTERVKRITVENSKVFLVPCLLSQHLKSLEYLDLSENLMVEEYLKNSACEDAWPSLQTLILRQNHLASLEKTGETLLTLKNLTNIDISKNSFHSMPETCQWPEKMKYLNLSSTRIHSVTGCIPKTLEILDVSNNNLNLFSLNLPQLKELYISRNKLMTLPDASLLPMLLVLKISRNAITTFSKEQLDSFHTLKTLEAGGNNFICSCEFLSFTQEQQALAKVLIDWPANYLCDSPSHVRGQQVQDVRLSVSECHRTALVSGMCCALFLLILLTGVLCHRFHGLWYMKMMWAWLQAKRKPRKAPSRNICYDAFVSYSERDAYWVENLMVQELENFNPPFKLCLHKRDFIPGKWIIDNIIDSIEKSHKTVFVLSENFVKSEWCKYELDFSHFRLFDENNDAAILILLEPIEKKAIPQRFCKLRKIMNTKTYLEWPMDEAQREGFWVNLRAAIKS
# T2 sequence (O00206 24-839): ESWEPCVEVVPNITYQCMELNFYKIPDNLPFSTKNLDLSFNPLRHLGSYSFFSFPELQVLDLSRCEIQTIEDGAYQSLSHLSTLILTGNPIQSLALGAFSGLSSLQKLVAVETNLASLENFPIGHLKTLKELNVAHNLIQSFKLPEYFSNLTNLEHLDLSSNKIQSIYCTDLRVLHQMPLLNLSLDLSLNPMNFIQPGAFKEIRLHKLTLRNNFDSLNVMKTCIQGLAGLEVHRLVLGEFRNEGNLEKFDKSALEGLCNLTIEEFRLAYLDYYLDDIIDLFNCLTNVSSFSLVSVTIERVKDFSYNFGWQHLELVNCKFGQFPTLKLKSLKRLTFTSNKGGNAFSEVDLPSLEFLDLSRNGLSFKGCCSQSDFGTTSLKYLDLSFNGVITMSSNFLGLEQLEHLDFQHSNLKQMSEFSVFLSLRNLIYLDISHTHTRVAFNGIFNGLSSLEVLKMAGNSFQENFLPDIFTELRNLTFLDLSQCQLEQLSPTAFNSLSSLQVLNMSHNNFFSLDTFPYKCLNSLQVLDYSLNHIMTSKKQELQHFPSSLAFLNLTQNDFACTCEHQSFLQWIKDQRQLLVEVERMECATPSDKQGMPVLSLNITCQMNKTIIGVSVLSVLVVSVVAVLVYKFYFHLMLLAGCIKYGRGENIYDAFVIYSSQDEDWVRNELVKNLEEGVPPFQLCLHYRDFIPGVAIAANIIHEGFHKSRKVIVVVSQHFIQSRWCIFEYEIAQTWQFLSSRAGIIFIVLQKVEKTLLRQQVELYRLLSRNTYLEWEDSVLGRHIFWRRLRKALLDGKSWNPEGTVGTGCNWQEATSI
# T2 sequence (Q9Y6Y9 17-160 partner limits assumed): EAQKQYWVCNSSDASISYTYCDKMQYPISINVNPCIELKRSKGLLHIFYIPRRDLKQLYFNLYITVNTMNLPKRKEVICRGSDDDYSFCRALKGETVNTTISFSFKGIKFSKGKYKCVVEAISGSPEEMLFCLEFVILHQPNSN
smiles,measurement,setting,value
"O=P1(N(CCCl)CCCl)NCCCO1 (centres unmarked) [Cyclcophosphamide, cyclophosphamide, reference compound]",survival,B16 tumors,30%
"Nc1nc2c(ncn2[C@@H]2O[C@H](CO)[C@@H](O)[C@H]2O)c(=O)[nH]1 [Guanosine, guanosine]","stimulatory effect on human TLR2 (NF-κB activation), combination",human TLR2; [2],significant stimulatory effect
same,stimulatory effect on human TLR2 (NF-κB activation),human TLR2; [3],significant stimulatory effect
same,"stimulatory effect on human TLR4 (NF-κB activation), combination",human TLR4; [2],significant stimulatory effect
same,stimulatory effect on human TLR4 (NF-κB activation),human TLR4; [3],significant stimulatory effect
"O=c1[nH]cnc2c(CN3C[C@H](CO)[C@@H](O)C3)c[nH]c12 [NTR002, 1,5-dihydro-7-[[(3R,4R)-3-hydroxy-4-(hydroxymethyl)pyrrolidin-1-yl]methyl]-4H-pyrrolo[3,2-d]pyrimidin-4-one]",serum interferon-g levels,"tetanus toxoid vaccine; day 30, ELISA, high dose group 60 mg/kg p.o., FIG. 4",elevated
same,serum tetanus toxoid antibody titers,"tetanus toxoid vaccine; day 38, ELISA, p.o. 30 mg/kg (6 days of treatment) and 60 mg/kg (3 days of treatment), FIG. 3",significantly elevated
same,weight loss,[1],significant decrease
